One test concerns the target Focal adhesion kinase 1 (Homo sapiens, UniProt Q05397).
The target in test [1] is Epidermal growth factor receptor (Homo sapiens, UniProt P00533).
For test [2], the target named is T1, Tyrosine-protein kinase ITK/TSK (Homo sapiens, UniProt Q08881).
T1 sequence (Q08881 whole entry): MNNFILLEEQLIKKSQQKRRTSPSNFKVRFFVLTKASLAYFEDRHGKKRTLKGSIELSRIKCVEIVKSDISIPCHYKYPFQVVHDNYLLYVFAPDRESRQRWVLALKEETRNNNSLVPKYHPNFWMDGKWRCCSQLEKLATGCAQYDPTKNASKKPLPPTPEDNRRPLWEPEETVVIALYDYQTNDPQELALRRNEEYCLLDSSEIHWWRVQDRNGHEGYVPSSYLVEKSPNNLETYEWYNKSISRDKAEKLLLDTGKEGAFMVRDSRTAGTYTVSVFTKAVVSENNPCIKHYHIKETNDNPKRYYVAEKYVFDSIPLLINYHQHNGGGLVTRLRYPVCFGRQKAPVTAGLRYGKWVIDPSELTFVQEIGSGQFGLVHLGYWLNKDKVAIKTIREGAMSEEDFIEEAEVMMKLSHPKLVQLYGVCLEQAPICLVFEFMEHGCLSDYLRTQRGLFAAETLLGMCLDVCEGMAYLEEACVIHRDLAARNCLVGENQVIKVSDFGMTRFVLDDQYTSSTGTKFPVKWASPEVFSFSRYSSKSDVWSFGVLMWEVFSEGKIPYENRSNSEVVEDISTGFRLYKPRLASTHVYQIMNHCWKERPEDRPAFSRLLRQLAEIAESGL

Test [3] concerns the target T2, Cytoplasmic tyrosine-protein kinase BMX (Homo sapiens, UniProt P51813).
T2 sequence (P51813 whole entry): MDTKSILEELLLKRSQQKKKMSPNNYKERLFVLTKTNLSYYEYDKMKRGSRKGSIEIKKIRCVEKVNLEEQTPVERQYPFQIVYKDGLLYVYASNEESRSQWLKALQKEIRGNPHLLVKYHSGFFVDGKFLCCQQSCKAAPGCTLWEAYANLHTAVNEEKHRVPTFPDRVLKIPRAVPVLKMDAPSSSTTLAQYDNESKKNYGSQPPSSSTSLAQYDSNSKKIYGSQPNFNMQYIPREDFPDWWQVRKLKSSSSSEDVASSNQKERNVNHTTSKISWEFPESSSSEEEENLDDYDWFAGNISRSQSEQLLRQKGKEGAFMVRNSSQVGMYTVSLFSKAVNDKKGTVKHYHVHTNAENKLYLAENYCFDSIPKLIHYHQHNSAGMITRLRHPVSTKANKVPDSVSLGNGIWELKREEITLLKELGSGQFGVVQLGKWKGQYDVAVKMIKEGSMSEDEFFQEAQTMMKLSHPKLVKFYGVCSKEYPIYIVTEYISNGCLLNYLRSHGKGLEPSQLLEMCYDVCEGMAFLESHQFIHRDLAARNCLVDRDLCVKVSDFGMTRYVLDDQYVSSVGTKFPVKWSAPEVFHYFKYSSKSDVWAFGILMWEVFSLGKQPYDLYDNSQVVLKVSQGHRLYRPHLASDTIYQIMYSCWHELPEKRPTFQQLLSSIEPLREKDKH

SMILES strings stand for the structures.

Sequence of Focal adhesion kinase 1 (Q05397 whole entry): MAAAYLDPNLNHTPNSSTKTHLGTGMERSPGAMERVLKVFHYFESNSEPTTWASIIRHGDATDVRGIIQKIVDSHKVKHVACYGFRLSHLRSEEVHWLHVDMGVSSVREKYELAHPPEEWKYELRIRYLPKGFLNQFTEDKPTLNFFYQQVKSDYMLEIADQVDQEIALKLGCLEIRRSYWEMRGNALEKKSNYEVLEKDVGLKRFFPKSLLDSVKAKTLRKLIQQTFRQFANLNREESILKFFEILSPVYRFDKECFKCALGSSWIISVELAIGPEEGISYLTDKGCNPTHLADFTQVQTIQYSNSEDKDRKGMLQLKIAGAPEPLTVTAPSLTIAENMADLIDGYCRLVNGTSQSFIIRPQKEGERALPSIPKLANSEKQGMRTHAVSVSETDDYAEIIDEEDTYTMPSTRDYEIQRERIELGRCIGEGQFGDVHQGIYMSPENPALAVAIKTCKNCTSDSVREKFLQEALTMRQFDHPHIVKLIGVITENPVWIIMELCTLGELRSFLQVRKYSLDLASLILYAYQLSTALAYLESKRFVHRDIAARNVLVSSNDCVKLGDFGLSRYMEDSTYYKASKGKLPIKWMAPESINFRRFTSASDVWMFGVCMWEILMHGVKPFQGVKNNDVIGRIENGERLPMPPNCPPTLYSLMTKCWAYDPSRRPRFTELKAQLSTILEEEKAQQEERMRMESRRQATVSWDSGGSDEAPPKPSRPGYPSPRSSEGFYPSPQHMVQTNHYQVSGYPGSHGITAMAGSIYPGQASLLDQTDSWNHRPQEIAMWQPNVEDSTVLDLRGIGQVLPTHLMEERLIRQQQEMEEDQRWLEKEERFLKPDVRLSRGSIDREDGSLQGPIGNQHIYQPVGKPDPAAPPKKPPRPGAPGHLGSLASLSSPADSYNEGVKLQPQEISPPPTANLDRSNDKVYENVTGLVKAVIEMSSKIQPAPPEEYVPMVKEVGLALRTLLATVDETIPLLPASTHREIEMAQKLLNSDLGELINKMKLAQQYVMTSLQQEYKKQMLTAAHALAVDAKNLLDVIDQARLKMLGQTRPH
Sequence of Epidermal growth factor receptor (P00533 whole entry): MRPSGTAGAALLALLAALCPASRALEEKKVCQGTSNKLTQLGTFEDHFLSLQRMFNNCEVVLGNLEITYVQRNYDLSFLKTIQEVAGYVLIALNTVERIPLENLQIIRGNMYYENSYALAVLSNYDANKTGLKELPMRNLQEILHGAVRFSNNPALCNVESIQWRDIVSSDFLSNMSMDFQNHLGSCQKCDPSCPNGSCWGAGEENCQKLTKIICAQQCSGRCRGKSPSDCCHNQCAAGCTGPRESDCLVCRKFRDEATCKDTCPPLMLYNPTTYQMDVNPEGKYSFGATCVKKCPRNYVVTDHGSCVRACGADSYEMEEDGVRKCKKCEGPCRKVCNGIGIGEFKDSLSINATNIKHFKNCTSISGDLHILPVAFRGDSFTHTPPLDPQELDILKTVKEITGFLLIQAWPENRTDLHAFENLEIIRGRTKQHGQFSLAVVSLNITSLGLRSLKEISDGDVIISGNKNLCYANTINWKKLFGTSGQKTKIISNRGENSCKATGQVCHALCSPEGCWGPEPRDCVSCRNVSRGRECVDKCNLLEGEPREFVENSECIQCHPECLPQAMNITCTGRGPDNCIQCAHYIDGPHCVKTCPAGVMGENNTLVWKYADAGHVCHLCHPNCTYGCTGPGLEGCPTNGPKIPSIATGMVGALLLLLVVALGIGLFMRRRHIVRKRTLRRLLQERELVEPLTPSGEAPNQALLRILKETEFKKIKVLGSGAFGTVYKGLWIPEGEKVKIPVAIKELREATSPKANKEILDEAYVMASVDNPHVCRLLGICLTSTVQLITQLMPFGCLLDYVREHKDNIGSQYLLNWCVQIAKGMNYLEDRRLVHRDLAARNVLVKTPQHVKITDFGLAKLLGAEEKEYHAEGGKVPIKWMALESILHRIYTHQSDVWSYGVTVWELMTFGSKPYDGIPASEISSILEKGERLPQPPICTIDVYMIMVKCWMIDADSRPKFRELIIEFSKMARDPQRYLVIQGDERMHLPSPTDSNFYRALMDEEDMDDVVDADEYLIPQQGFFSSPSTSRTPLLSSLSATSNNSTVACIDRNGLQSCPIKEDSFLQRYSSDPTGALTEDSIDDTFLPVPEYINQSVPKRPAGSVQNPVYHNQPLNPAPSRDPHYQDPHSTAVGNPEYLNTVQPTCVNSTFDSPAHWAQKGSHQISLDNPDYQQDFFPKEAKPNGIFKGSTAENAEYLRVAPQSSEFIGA

For `C=CC(=O)Nc1ccccc1Nc1nc(Nc2ccc(OCCCOC3(CC)OCC(C)(C)CO3)cc2)ncc1F`, the IC50 (at Focal adhesion kinase 1; in test [1]; in test [2]; in test [3]) was more than 0.1 µM throughout.

Consider `C=CC(=O)N1CCC[C@@H](Nc2nc(Nc3ccc(OCCCOC4(CC)OCC(C)(C)CO4)cc3)ncc2F)C1`, for which the IC50 was more than 0.1 µM at Focal adhesion kinase 1, more than 0.1 µM in test [1], more than 0.1 µM in test [2] and less than 0.1 µM in test [3].

In general, IC50 refers to the concentration that gives 50% inhibition.

Values taken from ChEMBL document CHEMBL5729309, “Substituted pyrimidines, pharmaceutical compositions and therapeutic methods thereof” (2022).
